In ChEMBL document CHEMBL1201862, “PubChem BioAssay data set” (2004):
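Compound exposure: 48 hours, 5 concentrations, 96-well plates. GI50 marks 50% less growth.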 Activity calls are given as the source filed them. No stated cut-off is given here; in the data, active = GI50 up to about 1.1 µM and inactive = higher.

Tests used:
Assay in all cases: NCI-60 cell line screen, 48 h
A498 = test system: A498
ACHN = test system: ACHN
CAKI-1 = test system: CAKI-1
HCT-116 = test system: HCT-116
HL-60 = test system: HL-60
KM12 = test system: KM12
LOX IMVI = test system: LOX IMVI
MDA-MB-231 = test system: MDA-MB-231
Malme-3M = test system: Malme-3M
NCI-H226 = test system: NCI-H226
NCI-H460 = test system: NCI-H460
OVCAR-4 = test system: OVCAR-4
OVCAR-5 = test system: OVCAR-5
RXF 393 = test system: RXF 393
SF-268 = test system: SF-268
SF-539 = test system: SF-539
SN12C = test system: SN12C
SW-620 = test system: SW-620
T47D = test system: T47D
NCI-H23 = test system: NCI-H23

Compound | GI50 (A498) | GI50 (ACHN) | GI50 (CAKI-1) | GI50 (HCT-116) | GI50 (HL-60) | GI50 (KM12) | GI50 (LOX IMVI) | GI50 (MDA-MB-231) | GI50 (Malme-3M) | GI50 (NCI-H226) | GI50 (NCI-H460) | GI50 (OVCAR-4) | GI50 (OVCAR-5) | GI50 (RXF 393) | GI50 (SF-268) | GI50 (SF-539) | GI50 (SN12C) | GI50 (SW-620) | GI50 (T47D) | GI50 (NCI-H23)
Cc1cc(S(=O)(=O)Nc2n[nH]c(-c3ccc(Cl)cn3)n2)c(S)cc1Cl | 87.3 µM (inactive) | 32.9 µM (inactive) | 44 µM (inactive) | 38.6 µM (inactive) | 42 µM (inactive) | 36.3 µM (inactive) | > 100 µM (inactive) | > 100 µM (inactive) | > 100 µM (inactive) | 33.4 µM (inactive) | 36.9 µM (inactive) | 53.8 µM (inactive) | > 100 µM (inactive) | 27.1 µM (inactive) | 54.7 µM (inactive) | 44.1 µM (inactive) | > 100 µM (inactive) | 83.6 µM (inactive) | 31 µM (inactive) | 
CC1(C)CCCCC1/C=C/C(CC(O)(C(F)(F)F)C(F)(F)F)=N\Nc1ccc([N+](=O)[O-])cc1[N+](=O)[O-] (stereo not given) | 1.25 µM (inactive) | 0.48 µM (active) |  | 0.587 µM (active) | 1.38 µM (inactive) | 2.68 µM (inactive) | 1.78 µM (inactive) | 2.03 µM (inactive) | 4.51 µM (inactive) | 0.498 µM (active) | 0.604 µM (active) | 1.35 µM (inactive) | 1.57 µM (inactive) | 0.406 µM (active) | 0.527 µM (active) | 0.292 µM (active) | 2.13 µM (inactive) | 1.86 µM (inactive) | 0.365 µM (active) | 0.29 µM (active)
c1cc(-c2cscc2-c2ccsc2)cs1 | > 100 µM (inactive) | > 100 µM (inactive) | > 100 µM (inactive) | 40.5 µM (inactive) | 30.4 µM (inactive) | 14.8 µM (inactive) | 37.6 µM (inactive) | > 100 µM (inactive) |  |  | 43.9 µM (inactive) | 37.8 µM (inactive) | 53.2 µM (inactive) | 28.4 µM (inactive) | 58.2 µM (inactive) | 17.8 µM (inactive) | > 100 µM (inactive) | 57.9 µM (inactive) | 69.7 µM (inactive) | 25.7 µM (inactive)
N#Cc1c(N)oc(-c2ccc([N+](=O)[O-])cc2)c1C#N | 22.1 µM (inactive) | 27.2 µM (inactive) | 24.3 µM (inactive) | 29.2 µM (inactive) | > 100 µM (inactive) | 72.6 µM (inactive) | 44.2 µM (inactive) | 22 µM (inactive) | 26.7 µM (inactive) | 17.9 µM (inactive) |  |  | 69.8 µM (inactive) | 28.6 µM (inactive) | 19.5 µM (inactive) | 19.8 µM (inactive) | 24.2 µM (inactive) | 58.3 µM (inactive) | 27.2 µM (inactive) | 23.8 µM (inactive)
O=c1c2cc(Cl)ccc2[nH]c2cc(O)cc(O)c12 | > 10 µM (inactive) | > 10 µM (inactive) | > 10 µM (inactive) | > 10 µM (inactive) | > 10 µM (inactive) | > 10 µM (inactive) |  | > 10 µM (inactive) | > 10 µM (inactive) | 1.61 µM (inactive) | > 10 µM (inactive) | > 10 µM (inactive) | > 10 µM (inactive) | > 10 µM (inactive) | > 10 µM (inactive) | > 10 µM (inactive) | > 10 µM (inactive) | > 10 µM (inactive) | > 10 µM (inactive) | 9.02 µM (inactive)
COCN1C(=O)[C@@H]2CCCN2C(=O)c2cc([N+](=O)[O-])ccc21 | 43 µM (inactive) | 53.1 µM (inactive) | 76.7 µM (inactive) | 86.9 µM (inactive) |  | > 100 µM (inactive) | 26.3 µM (inactive) | 61.1 µM (inactive) | 88.5 µM (inactive) | 2.21 µM (inactive) |  | 76.9 µM (inactive) | 52.7 µM (inactive) | 19 µM (inactive) | 35.9 µM (inactive) | > 100 µM (inactive) | > 100 µM (inactive) | 65.8 µM (inactive) | 45.7 µM (inactive) | 86.7 µM (inactive)
O=C1c2ccccc2C(=O)N1n1c(Cc2ccc([N+](=O)[O-])cc2)n[nH]c1=O | > 100 µM (inactive) | > 100 µM (inactive) | > 100 µM (inactive) | > 100 µM (inactive) |  | > 100 µM (inactive) |  | > 100 µM (inactive) | > 100 µM (inactive) | > 100 µM (inactive) | > 100 µM (inactive) |  | > 100 µM (inactive) | > 100 µM (inactive) | > 100 µM (inactive) | > 100 µM (inactive) | > 100 µM (inactive) | > 100 µM (inactive) | 23.3 µM (inactive) | > 100 µM (inactive)
O=C(COc1ccc(Cl)c(Cl)c1)Nc1ccc[n+](Cc2ccc(S(=O)(=O)F)c(Cl)c2)c1 | > 100 µM (inactive) | > 100 µM (inactive) | > 100 µM (inactive) | > 100 µM (inactive) | > 100 µM (inactive) | > 100 µM (inactive) |  | 36.6 µM (inactive) | 51.2 µM (inactive) | > 100 µM (inactive) | > 100 µM (inactive) | > 100 µM (inactive) | > 100 µM (inactive) | > 100 µM (inactive) | > 100 µM (inactive) | > 100 µM (inactive) | 98.4 µM (inactive) | > 100 µM (inactive) | > 100 µM (inactive) | > 100 µM (inactive)
CCc1c2c(cc3c1CC1(C3)Cc3cc4c(c(C(=O)OC)c3C1)CCCC4)CCCC2 (stereo not given) | > 100 µM (inactive) | > 100 µM (inactive) |  | 20 µM (inactive) | 80.9 µM (inactive) | > 100 µM (inactive) | > 100 µM (inactive) | > 100 µM (inactive) | > 100 µM (inactive) | > 100 µM (inactive) |  | > 100 µM (inactive) | > 100 µM (inactive) | 59.4 µM (inactive) |  | > 100 µM (inactive) | > 100 µM (inactive) |  | > 100 µM (inactive) | > 100 µM (inactive)
Cc1cn(CCOCCOC(=O)NC(CCCNC(=N)N)C(=O)O)c(=O)[nH]c1=O (stereo not given) | > 100 µM (inactive) | > 100 µM (inactive) |  | > 100 µM (inactive) | > 100 µM (inactive) | > 100 µM (inactive) | > 100 µM (inactive) | > 100 µM (inactive) |  | > 100 µM (inactive) | > 100 µM (inactive) | > 100 µM (inactive) | > 100 µM (inactive) | > 100 µM (inactive) | > 100 µM (inactive) | > 100 µM (inactive) | > 100 µM (inactive) | > 100 µM (inactive) | > 100 µM (inactive) | > 100 µM (inactive)
CCCCC1Cc2ccccc2-c2nc3ccccc3n21 (stereo not given) | 16.7 µM (inactive) | 17.1 µM (inactive) | 15.5 µM (inactive) | 12.6 µM (inactive) | < 0.01 µM (active) | 15.4 µM (inactive) | 16 µM (inactive) | 17.3 µM (inactive) |  | 19.4 µM (inactive) | 14.3 µM (inactive) | 12.9 µM (inactive) | 16 µM (inactive) | 15.5 µM (inactive) | 17.3 µM (inactive) | 19.6 µM (inactive) |  | 16.4 µM (inactive) | 7.06 µM (inactive) | 14.9 µM (inactive)
CCOC(=O)c1cc(-c2ccn(C(C)=O)c2)c(-c2cc(C)co2)[nH]1 | > 100 µM (inactive) | > 100 µM (inactive) | > 100 µM (inactive) | > 100 µM (inactive) | > 100 µM (inactive) | > 100 µM (inactive) | > 100 µM (inactive) | > 100 µM (inactive) | > 100 µM (inactive) | > 100 µM (inactive) | > 100 µM (inactive) | > 100 µM (inactive) | > 100 µM (inactive) | > 100 µM (inactive) | > 100 µM (inactive) |  | > 100 µM (inactive) | > 100 µM (inactive) | > 100 µM (inactive) | > 100 µM (inactive)
O=C(NNS(=O)(=O)c1ccccc1)c1csc(NC(=S)NC2CCCCC2)n1 | 80.5 µM (inactive) | 33.5 µM (inactive) | 28.4 µM (inactive) | 18.1 µM (inactive) | 69.5 µM (inactive) | 36.3 µM (inactive) | 17.1 µM (inactive) | 22.8 µM (inactive) | 35.4 µM (inactive) | 67.5 µM (inactive) |  | 34.6 µM (inactive) | 52.1 µM (inactive) |  | 22 µM (inactive) | 37.5 µM (inactive) | 20.8 µM (inactive) | 25 µM (inactive) | 18.7 µM (inactive) | 48 µM (inactive)
O/N=C1\C/C(=N\O)c2c(Br)sc(Br)c21 | 58.1 µM (inactive) | > 100 µM (inactive) | 19.4 µM (inactive) | 37.4 µM (inactive) | 27.4 µM (inactive) | 32.6 µM (inactive) | 18.8 µM (inactive) | 77.1 µM (inactive) | > 100 µM (inactive) | 51.8 µM (inactive) | > 100 µM (inactive) | 27.2 µM (inactive) |  |  | 17.4 µM (inactive) | 38.2 µM (inactive) | > 100 µM (inactive) | 26.4 µM (inactive) | 31.3 µM (inactive) | 20.4 µM (inactive)
CCC(=O)O[C@H]1CC[C@H]2[C@@H]3CCC4=C/C(=N/NC(=O)c5cccc6c(=O)c7ccccc7[nH]c56)CC[C@]4(C)[C@H]3CC[C@]12C | > 25 µM (inactive) | > 25 µM (inactive) |  |  |  | > 25 µM (inactive) | 10.1 µM (inactive) | > 25 µM (inactive) |  | > 25 µM (inactive) | > 25 µM (inactive) | > 25 µM (inactive) | > 25 µM (inactive) | > 25 µM (inactive) | > 25 µM (inactive) | > 25 µM (inactive) | > 25 µM (inactive) | > 25 µM (inactive) | > 25 µM (inactive) | > 25 µM (inactive)
